Several values for one entry are separate records, joined by “and”; a condition that tells them apart may be missing. Equal values may be shown once.
Key:
[1] = target: T1, Sterol O-acyltransferase 1 (Rattus norvegicus) (UniProt O70536); test: In vitro inhibitory activity against acyl coenzyme A:cholesterol acyltransferase; parameters: concentration or dose not given beside the values; conditions: concentration not given here
T1 sequence (whole entry): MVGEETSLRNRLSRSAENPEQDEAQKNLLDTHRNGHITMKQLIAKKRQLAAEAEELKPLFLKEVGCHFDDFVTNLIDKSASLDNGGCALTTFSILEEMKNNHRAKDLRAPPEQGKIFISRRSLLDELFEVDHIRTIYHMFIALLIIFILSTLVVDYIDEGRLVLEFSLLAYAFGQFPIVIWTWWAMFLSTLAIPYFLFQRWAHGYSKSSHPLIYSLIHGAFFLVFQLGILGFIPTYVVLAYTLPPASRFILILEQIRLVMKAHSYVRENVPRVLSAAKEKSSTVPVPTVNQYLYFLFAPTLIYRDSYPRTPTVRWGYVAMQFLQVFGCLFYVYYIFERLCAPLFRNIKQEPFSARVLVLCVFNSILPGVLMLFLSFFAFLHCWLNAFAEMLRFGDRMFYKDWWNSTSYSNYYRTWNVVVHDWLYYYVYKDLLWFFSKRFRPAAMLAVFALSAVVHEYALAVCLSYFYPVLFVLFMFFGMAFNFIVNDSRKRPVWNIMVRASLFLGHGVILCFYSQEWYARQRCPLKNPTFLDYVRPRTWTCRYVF

Rattus norvegicus [2] = test: In vivo Triglyceride lowering activity at dose as 0.01 % of the diet.; format: functional
Rattus norvegicus [3] = test: In vivo Triglyceride lowering activity at a dose of 0.10 % of the diet; format: functional
Rattus norvegicus [4] = test: In vivo Sterol lowering activity at dose as 0.01 % of the diet.; format: functional
Rattus norvegicus [5] = test: In vivo Sterol lowering activity at dose as 0.03 % of the diet.; format: functional
Rattus norvegicus [6] = test: In vivo Triglyceride lowering activity at dose as 0.03 % of the diet.; format: functional
Rattus norvegicus [7] = test: In vivo Sterol lowering activity at dose as 0.10 % of the diet.; format: functional
Rattus norvegicus [8] = test: In vivo Triglyceride lowering activity at dose as 0.10 % of the diet.; format: functional
Rattus norvegicus [9] = test: In vivo sterol lowering activity, dosed as 0.03 % of the diet; format: functional
Rattus norvegicus [10] = test: In vivo sterol lowering activity at dose of 0.10 % of the diet; format: functional
Rattus norvegicus [11] = test: In vivo Triglyceride lowering activity at dose as 0.03 % of the diet; format: functional
Rattus norvegicus [12] = test: In vivo Triglyceride lowering activity at dose as 0.01 % of the diet; format: functional
Rattus norvegicus [13] = test: In vivo Sterol lowering activity at dose as 0.01% of the diet; format: functional

Structure (SMILES) | inhibition [1] | Diet (Rattus norvegicus [2]) [%] | serum triglyceride level (% of control) (Rattus norvegicus [3]) [%] | Diet (Rattus norvegicus [4]) [%] | Diet (Rattus norvegicus [5]) [%] | Diet (Rattus norvegicus [6]) [%] | Diet (Rattus norvegicus [7]) [%] | Diet (Rattus norvegicus [8]) [%] | serum sterol level, percent of control (Rattus norvegicus [9]) [%] | serum sterol level, % of control (Rattus norvegicus [10]) [%] | triglyceride lowering activity (Rattus norvegicus [11]) [%] | serum triglyceride level (% of control) (Rattus norvegicus [12]) [%] | serum sterol level, percent of control (Rattus norvegicus [13]) [%]
O=C(O)CCNc1ccc(C(=O)O)cc1 | 6% and 0% | 97 | 72 | 101 | 118 | 108 | 100 | – | – | – | – | – | –
N#CCCCNc1ccc(C(=O)O)cc1 | 8% | – | – | – | – | – | 94 | 93 | – | – | – | – | –
CCCC(Nc1ccc(C(=O)O)cc1)C(=O)O (stereo unspecified) | 0% | 93 | – | 95 | – | 74 | – | – | 87 | – | – | – | –
NC(=O)CNc1ccc(C(=O)O)cc1 | 17% | – | – | – | – | – | 100 | 102 | – | – | – | – | –
CCOC(=O)CNc1ccc(C(=O)OCC)cc1 | 24% | 109 | – | 90 | 100 | 114 | 100 | 121 | – | – | – | – | –
CCOC(=O)c1ccc(NCCC2CCCC2)cc1 | 60% | – | 69 | – | – | – | 96 | – | – | – | – | – | –
CCOC(=O)c1ccc(NC(=O)CCC(=O)OC)cc1 | 2% | 99 | – | 86 | 99 | 92 | 97 | 114 | – | – | – | – | –
CCOC(=O)c1ccc(NC(C)C(=O)OCC)cc1 (stereo unspecified) | 23% | 123 | – | 107 | 93 | 110 | 107 | 82 | – | – | – | – | –
CCOC(=O)CCCNc1ccc(C(=O)OCC)cc1 | 11% | – | – | – | – | – | 93 | 103 | – | – | – | – | –
O=C(O)CCCNc1ccc(C(=O)O)cc1 | 0% | – | – | – | – | – | 99 | 86 | – | – | – | – | –
CCOC(=O)CCNc1ccc(C(=O)OCC)cc1 | 28% | 109 | – | 97 | 100 | 98 | 94 | 103 | – | – | – | – | –
CCCC(Nc1ccc(C(=O)OCC)cc1)C(=O)OCC (stereo unspecified) | 44% | 93 | – | 103 | 109 | 96 | 102 | 77 | – | – | – | – | –
O=C(O)CN(CC(=O)O)c1ccc(C(=O)O)cc1 | 14% | 92 | – | 95 | 89 | 84 | 91 | 100 | – | – | – | – | –
CCOC(=O)c1ccc(N2CCCC2=O)cc1 | 6% | – | – | – | – | – | – | 72 | – | 84 | – | – | –
O=C(O)c1ccc(NCC2CCCCC2)cc1 | 1% | – | 62 | 95 | – | – | – | – | 84 | 83 | 71 | 73 | –
O=C(O)CNc1ccc(C(=O)O)cc1 | 18% | 90 | – | 89 | 87 | 93 | 98 | 106 | – | – | – | – | –
CCOC(=O)CN(CC(=O)OCC)c1ccc(C(=O)OCC)cc1 | 32% | 77 | – | 93 | 98 | 120 | 100 | 122 | – | – | – | – | –

Structure (SMILES) | inhibition [1] | Diet (Rattus norvegicus [2]) [%] | serum triglyceride level (% of control) (Rattus norvegicus [3]) [%] | Diet (Rattus norvegicus [4]) [%] | Diet (Rattus norvegicus [5]) [%] | Diet (Rattus norvegicus [6]) [%] | Diet (Rattus norvegicus [7]) [%] | Diet (Rattus norvegicus [8]) [%] | serum sterol level, percent of control (Rattus norvegicus [9]) [%] | serum sterol level, % of control (Rattus norvegicus [10]) [%] | triglyceride lowering activity (Rattus norvegicus [11]) [%] | serum triglyceride level (% of control) (Rattus norvegicus [12]) [%] | serum sterol level, percent of control (Rattus norvegicus [13]) [%]
CCCCCCCCCCC(Cl)CCCCCNc1ccc(C(=O)OCC)cc1 (stereo unspecified) | 13% | – | <53 | – | – | – | – | – | 91 | 94 | 84 | 82 | 98
O=C(O)c1ccc(NCCC2CCCC2)cc1 | – | 78 | 64 | 92 | 94 | 83 | 88 | – | – | – | – | – | –
CCSCCCCCCCCCCCCCCCCNc1ccc(C(=O)O)cc1 | < 36% | – | <59 | – | – | – | – | – | 91 | 88 | <58 | 62 | 91
CCCCCCCCCCC(C#N)CCCCCNc1ccc(C(=O)OCC)cc1 (stereo unspecified) | < 69% | – | <51 | – | – | – | – | – | 97 | 87 | <69 | <66 | 100
CC(C)CCCCCCCCCCCCCCNc1ccc(C(=O)O)cc1 | < 51% | – | <29 | – | – | – | – | – | <67 | <44 | <50 | 76 | <79
CC(C)CCCCCCCCCCCCCNc1ccc(C(=O)O)cc1 | < 63% | – | <29 | – | – | – | – | – | <76 | <64 | <68 | 77 | <89
O=C(O)c1ccc(NCCCCCCCCCCCC2CCCCC2)cc1 | < 56% | – | <48 | – | – | – | – | – | 91 | 83 | <51 | 73 | 95
O=C(O)CCCCCNc1ccc(C(=O)O)cc1 | 4% | 85 | – | 92 | 100 | 91 | 105 | 102 | – | – | – | – | –
CCOC(=O)c1ccc(NCCCCCCCCCCCCCCCC(F)(F)F)cc1 | 8% | – | <41 | – | – | – | – | – | <72 | <75 | <47 | <75 | <83
O=C(O)c1ccc(NCCCCCCCCCCCCCCCCS)cc1 | < 38% | – | <40 | – | – | – | – | – | 101 | 101 | <45 | 67 | 96
CCOC(=O)CCCCCNc1ccc(C(=O)OCC)cc1 | 18% | 68 | – | 96 | 92 | 72 | 84 | 71 | – | – | – | – | –
O=C(O)c1ccc(NCCCCCCCCCCCBr)cc1 | 8% | – | <55 | – | – | – | – | – | <86 | 100 | <65 | 78 | 99
CCCCCCCCCCC(C#N)CCCCCNc1ccc(C(=O)O)cc1 (stereo unspecified) | < 64% | – | <50 | – | – | – | – | – | <85 | 83 | <66 | 75 | 96
CCCCCCCCCCC(C)Nc1ccc(C(=O)O)cc1 (stereo unspecified) | < 51% | – | <58 | – | – | – | – | – | <90 | 92 | <49 | <42 | 94
O=C(O)c1ccc(NCCCCCCCCCCCSCc2ccccc2)cc1 | < 54% | – | <51 | – | – | – | – | – | 95 | 90 | <52 | <55 | 99
CCOC(=O)c1ccc(NCCCC#N)cc1 | 26% | 131 | – | 116 | 118 | 113 | 109 | 97 | – | – | – | – | –
CCCCCC(=O)CCCCCCCCCCNc1ccc(C(=O)OCC)cc1 | < 44% | – | <42 | – | – | – | – | – | 100 | 89 | <58 | <64 | 99

Reference: ChEMBL document CHEMBL1122462, “Potential antiatherosclerotic agents. 4. [(Functionalized-alkyl)amino]benzoic acid analogues of cetaben” (1983)
